Data set [1] in a line: Apparent permeability from apical to basolateral side in dog MDCK cells at 20 uM at pH 7.4. Format: ADME, cell-based, Canis lupus familiaris.
Data set [2] is described as follows: Solubility of the compound in FaSSIF measured after 16 hrs by HPLC analysis. Format: physicochemical.
Data set [3] is described as follows: Fraction unbound in human plasma incubated for 4.5 hrs by LC/MS/MS analysis. The format is ADME, cell-free.
The conditions of data set [4]: human, microsomes, 0.5 h, 2 µM.
Data set [5] relates to Mus musculus. The experiment in a line: Antiinflammatory activity against glucose-6-phosphate isomerase induced arthritis mouse model assessed as complete prophylaxis at 100 mg/kg administered once daily for 21 days from GPI immunization. The note with it: time 21.0 day. The format is functional, organism-based.
Data set [6] relates to Mus musculus. The experiment in a line: Antiinflammatory activity against glucose-6-phosphate isomerase induced arthritis mouse model assessed as improvement in clinical score at 10 to 30 mg/kg administered once daily for 21 days from GPI immunization. The format is functional, organism-based. The note with it: dose 10-30 mg/kg, time 21.0 day.
The subject of data set [7] is Mus musculus. The experiment in a line: Antiinflammatory activity against glucose-6-phosphate isomerase induced arthritis mouse model assessed as reduction in IL-17 mRNA expression in paws at 3 mg/kg administered once daily for 21 days from GPI immunization by Taqman PCR analysis relative to control. On the set-up: scale not given: the % may be the effect or the level left. The note with it: time 21 day. The format is functional. (Quantitative PCR measures a nucleic acid by following its amplification.)

The test system of data set [8] is Mus musculus. The experiment in a line: Antiinflammatory activity against glucose-6-phosphate isomerase induced arthritis mouse model assessed as reduction in IL-17 mRNA expression in paws at 10 mg/kg administered once daily for 21 days from GPI immunization by Taqman PCR analysis relative to control. To be noted: time 21 day. Also on record: scale not given: the % may be the effect or the level left. The format is functional.

The subject of data set [9] is Mus musculus. Kind of data set: Antiinflammatory activity against glucose-6-phosphate isomerase induced arthritis mouse model assessed as reduction in IL-17 mRNA expression in paws at 30 mg/kg administered once daily for 21 days from GPI immunization by Taqman PCR analysis relative to control. The format is functional. On the set-up: scale not given: the % may be the effect or the level left. To be noted: time 21 day.

Data set [10] relates to PBMC. The note with it: Mus musculus, dose 30-100 mg/kg, time 20-24 hrs.
Description: Inhibition of IL-17A secretion in antiCD3/IL-23 stimulated mouse PBMC cells in mouse plasma at 30 to 100 mg/kg when plasma exposure above 1.8 uM for 20 to 24 hrs
Data set [11] in a line: cells. To be noted: Mus musculus, PBMC.
Description: Inhibition of IL-17A secretion in antiCD3/IL-23 stimulated mouse PBMC cells in mouse plasma preincubated for 2 hrs followed by antiCD3/IL23 stimulation and measured after 6 hrs by Taqman PCR analysis
Data set [12] deals with T1, Nuclear receptor ROR-gamma (Homo sapiens) (UniProt P51449).
T1 sequence (whole entry): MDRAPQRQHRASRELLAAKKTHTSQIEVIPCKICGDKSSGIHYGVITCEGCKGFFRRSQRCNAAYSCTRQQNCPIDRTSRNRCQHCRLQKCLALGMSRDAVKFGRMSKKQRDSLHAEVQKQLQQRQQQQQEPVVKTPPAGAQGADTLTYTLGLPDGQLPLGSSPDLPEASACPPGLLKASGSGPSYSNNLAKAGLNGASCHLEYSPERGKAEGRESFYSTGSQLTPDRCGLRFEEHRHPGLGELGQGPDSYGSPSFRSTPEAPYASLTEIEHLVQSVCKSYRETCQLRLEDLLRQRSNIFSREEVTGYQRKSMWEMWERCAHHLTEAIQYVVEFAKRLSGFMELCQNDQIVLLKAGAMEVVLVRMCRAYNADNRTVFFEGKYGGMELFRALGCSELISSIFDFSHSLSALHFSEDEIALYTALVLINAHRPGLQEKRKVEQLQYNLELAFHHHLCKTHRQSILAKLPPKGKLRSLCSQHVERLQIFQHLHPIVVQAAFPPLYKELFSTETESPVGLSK
The experiment in a line: Displacement of [3H]-25-hydroxycholesterol from His-Flag-tagged human RORgammat LBD (309 to 508 residues) expressed in Escherichia coli at 10 uM measured after 4 hrs by Microbeta counter based analysis relative to control. On the technique in general: Loss of bound radioactivity is the signal in a displacement assay; it reports binding, not function.

pIC50: −log10 of the molar value. Converted amounts (≈) assume the structure as drawn. The source made the active and inactive calls. No cut-off for these calls is given here.

As for `CCS(=O)(=O)c1ccc(CNC(=O)c2cc3c(s2)C2(CCN([C@H](C)c4cnc(C(F)(F)F)nc4)CC2)O[C@@H](C)C3)cc1`, in data set [1], the Papp A→B at 20 µM stood at 7.57 ×10⁻⁶ cm/s. Besides, the concentration in solution in data set [2] (solubility at 16 h) was 24 µg/mL (≈ 38.5 µM). Besides, the free fraction (fraction unbound) at 4.5 h in [3] stood at 0.041. The compound also registered a CL free in [4] of 36.2 mL/min/kg.

As to `CS(=O)(=O)c1ccc(CNC(=O)c2cc3c(s2)C2(CCN(Cc4ccc(C#N)cc4)CC2)OCC3)cc1`, the CL free in data set [4] turned out to be 80.7 mL/min/kg.

For the compound `CCS(=O)(=O)c1ccc(CNC(=O)c2cc3c(s2)C2(CCN([C@H](C)c4ccc(C#N)cc4)CC2)OCC3)cc1`, in [1], the Papp A→B at 20 µM came out at 7.07 ×10⁻⁶ cm/s. In addition, the solubility at 16 h in [2] was determined as 9 µg/mL (≈ 16 µM). In [3], this compound yielded a fraction unbound at 4.5 h of 0.02. For the same compound, the result in data set [5] and in data set [6] was Active. Besides, the Activity is on record as 82% in data set [7], 90% in [8] and 88% in [9]. The same compound yielded a CL free in data set [4] of 406 mL/min/kg. Further, the inhibition result in [10] was “Active”. In addition, the pIC50 in data set [11] is 5.74.

`C[C@H](c1ccc(C#N)cc1)N1CCC2(CC1)OCCc1cc(C(=O)NCc3ccc(S(C)(=O)=O)cc3)sc12`: the CL free in [4] was found to be 218 mL/min/kg.

On to `CS(=O)(=O)c1ccc(CNC(=O)c2cc3c(s2)C2(CCN(Cc4ccc(Cl)cc4Cl)CC2)OCC3)cc1`, for which, in [4], the CL free was determined as 3450 mL/min/kg.

In turn, `CS(=O)(=O)c1ccc(CNC(=O)c2cc3c(s2)C2(CCN(Cc4ccc(Cl)cc4)CC2)OCC3)cc1` came in with a CL free in data set [4] of 495 mL/min/kg.

For `CCS(=O)(=O)c1ccc(CNC(=O)c2cc3c(s2)C2(CCN([C@H](C)c4ccc(C#N)cc4)CC2)OCC3)nc1`, in data set [1], the Papp A→B at 20 µM was 8.5 ×10⁻⁶ cm/s. In data set [2], this compound gave a solubility at 16 h of 185 µg/mL (≈ 328 µM). The fraction unbound at 4.5 h in data set [3] came out at 0.05. In addition, the CL free in [4] came out at 92.2 mL/min/kg.

For the compound `COc1ccccc1-n1cc(CN2CCC3(CC2)OCC(F)(F)c2cc(Cl)sc23)c(C)n1`, the Activity in data set [12] was determined as 52%.

In the case of `CCS(=O)(=O)c1ccc(CNC(=O)c2cc3c(s2)C2(CCN([C@H](C)c4cnc(C(F)(F)F)nc4)CC2)O[C@@H](C)C3)nc1`, in [1], the Papp A→B at 20 µM worked out at 9.07 ×10⁻⁶ cm/s. In data set [2], this compound registered a solubility at 16 h of 220 µg/mL (≈ 353 µM). The fraction unbound at 4.5 h in data set [3] came out at 0.12. The same compound yielded a CL free in [4] of 32 mL/min/kg.

In turn, `CS(=O)(=O)c1ccc(CNC(=O)c2cc3c(s2)C2(CCN(Cc4ccc(C(F)(F)F)cc4)CC2)OCC3)cc1` returned a CL free in data set [4] of 448 mL/min/kg.

Take `CCS(=O)(=O)c1ccc(CNC(=O)c2cc3c(s2)C2(CCN([C@H](C)c4cnc(C(F)(F)F)nc4)CC2)OCC3)cc1`: the apical-to-basolateral permeability (Papp A→B) at 20 µM in [1] was 8.56 ×10⁻⁶ cm/s. Moreover, the concentration in solution in data set [2] (solubility at 16 h) was 16 µg/mL (≈ 26.3 µM). In [3], this compound gave a fraction unbound at 4.5 h of 0.056. Further, in data set [4], the CL free turned out to be 69.5 mL/min/kg.

Broadly, the Papp A→B is how fast a substance crosses the layer from the apical side. By solubility is commonly meant the concentration that dissolves in the medium under given conditions. The fraction unbound is the share of the substance not bound to proteins or other matrix. For orientation: pIC50 means the IC50 on a negative log10 scale, so that one unit is a factor of ten.

The values are drawn from ChEMBL document CHEMBL5053486, “Defining Target Engagement Required for Efficacy In Vivo at the Retinoic Acid Receptor-Related Orphan Receptor C2 (RORγt)” (J Med Chem, 2021).
